Measurements: ChEMBL document CHEMBL2311347, “The discovery of fused oxadiazepines as gamma secretase modulators for treatment of Alzheimer's disease” (Bioorg Med Chem Lett, 2013)

Columns and labels:
[1] = biological target: hERG (Homo sapiens, UniProt Q12809); assay: Inhibition of human ERG at 10 uM
[2] = biological target: Gamma-secretase (Homo sapiens) (UniProt Q96BI3+Q9NZ42+Q8WW43+P49768+Q92542+P49810); assay: Inhibition of gamma secretase (unknown origin) assessed as ratio of Abeta to Abeta42 level; type: protein-complex assay
[3] = biological target: Gamma-secretase; assay: Inhibition of gamma secretase (unknown origin) assessed as reduction of Abeta42 production; type: protein-complex assay, Homo sapiens
[4] = system: Rattus norvegicus; assay: Antialzheimer's disease activity in po dosed rat assessed as reduction in Abeta42 level measured after 3 hrs post dose; type: functional, organism-based
[5] = biological target: Cytochrome P450 3A4 (Homo sapiens, UniProt P08684); assay: Inhibition of CYP3A4 (unknown origin); type: ADME
Chain of Cytochrome P450 3A4 (P08684 whole entry): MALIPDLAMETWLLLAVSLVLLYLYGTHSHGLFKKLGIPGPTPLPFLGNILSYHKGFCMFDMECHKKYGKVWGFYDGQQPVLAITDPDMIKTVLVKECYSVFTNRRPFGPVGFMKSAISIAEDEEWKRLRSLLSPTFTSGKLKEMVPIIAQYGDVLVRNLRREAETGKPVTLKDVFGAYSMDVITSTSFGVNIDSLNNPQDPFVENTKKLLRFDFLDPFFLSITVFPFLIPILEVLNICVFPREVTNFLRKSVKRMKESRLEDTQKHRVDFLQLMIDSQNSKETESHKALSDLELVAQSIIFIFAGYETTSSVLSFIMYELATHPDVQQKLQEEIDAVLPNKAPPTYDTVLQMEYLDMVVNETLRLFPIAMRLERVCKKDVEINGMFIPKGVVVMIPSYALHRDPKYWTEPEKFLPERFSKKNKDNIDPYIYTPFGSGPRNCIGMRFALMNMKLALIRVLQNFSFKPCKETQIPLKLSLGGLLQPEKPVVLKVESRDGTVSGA

[6] = biological target: T1, Nuclear receptor subfamily 1 group I member 2 (Homo sapiens, UniProt O75469); assay: Activation of PXR (unknown origin) assessed as induction of CYP2B1/2 expression up to 30 uM relative to untreated control; type: ADME
T1 sequence (O75469 whole entry): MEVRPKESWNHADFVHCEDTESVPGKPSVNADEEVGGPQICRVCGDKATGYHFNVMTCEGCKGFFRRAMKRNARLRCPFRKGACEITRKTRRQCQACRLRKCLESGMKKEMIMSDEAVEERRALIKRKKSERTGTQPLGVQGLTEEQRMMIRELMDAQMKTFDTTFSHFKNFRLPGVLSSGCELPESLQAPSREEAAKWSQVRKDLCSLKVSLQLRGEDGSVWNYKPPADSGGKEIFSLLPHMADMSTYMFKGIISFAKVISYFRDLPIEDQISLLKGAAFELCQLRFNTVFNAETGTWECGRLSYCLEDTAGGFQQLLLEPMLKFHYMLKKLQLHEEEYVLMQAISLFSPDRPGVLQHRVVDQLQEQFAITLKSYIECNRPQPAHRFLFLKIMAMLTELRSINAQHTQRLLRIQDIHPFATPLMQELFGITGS

[7] = biological target: T1, Nuclear receptor subfamily 1 group I member 2; assay: Activation of PXR (unknown origin) assessed as induction of CYP3A1 expression up to 30 uM relative to untreated control; type: ADME
[8] = system: Rattus norvegicus; assay: Antialzheimer's disease activity in rat assessed as reduction in Abeta42 level at 3 mg/kg, po measured after 3 hrs post dose; type: functional
[9] = Drug level in rat brain at 10 mg/kg, po measured after 6 hrs post dose; type: ADME, organism-based; parameters: dose 10 mg/kg, route oral; conditions: read-out: Drug uptake
[10] = system: Rattus norvegicus; assay: Antialzheimer's disease activity in rat assessed as reduction in Abeta42 level at 10 mg/kg, po measured after 3 hrs post dose; type: functional
[11] = AUC in rat at 10 mg/kg, po measured after 6 hrs post dose; type: ADME, organism-based; parameters: time < 6 hr, dose 10 mg/kg, route oral; conditions: plasma
[12] = Ratio of drug level in brain to plasma in rat at 10 mg/kg, po measured after 6 hrs post dose; type: ADME, organism-based; parameters: dose 10 mg/kg, route oral; conditions: read-out: BPR
[13] = biological target: Cytochrome P450 2C9 (Homo sapiens, UniProt P11712); assay: Inhibition of CYP2C9 (unknown origin); type: ADME
Chain of Cytochrome P450 2C9 (P11712 whole entry): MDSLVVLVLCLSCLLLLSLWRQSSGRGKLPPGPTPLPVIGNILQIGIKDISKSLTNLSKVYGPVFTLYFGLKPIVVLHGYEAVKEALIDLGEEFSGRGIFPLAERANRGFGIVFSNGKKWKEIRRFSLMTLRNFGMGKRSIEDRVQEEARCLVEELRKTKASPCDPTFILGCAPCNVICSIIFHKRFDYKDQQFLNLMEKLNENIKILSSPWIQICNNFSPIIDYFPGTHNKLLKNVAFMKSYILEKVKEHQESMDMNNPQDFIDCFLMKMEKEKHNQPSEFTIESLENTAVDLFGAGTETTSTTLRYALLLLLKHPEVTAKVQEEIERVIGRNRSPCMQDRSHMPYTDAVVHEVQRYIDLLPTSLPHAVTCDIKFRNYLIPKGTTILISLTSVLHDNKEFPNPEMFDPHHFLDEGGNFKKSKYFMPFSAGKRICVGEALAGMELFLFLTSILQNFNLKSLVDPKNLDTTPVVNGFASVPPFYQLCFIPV

[14] = system: Rattus norvegicus; assay: Antialzheimer's disease activity in rat assessed as reduction in Abeta42 level at 30 mg/kg, po measured after 3 hrs post dose; type: functional
[15] = biological target: Cytochrome P450 2D6 (Homo sapiens, UniProt P10635); assay: Inhibition of CYP2D6 (unknown origin); type: ADME
Chain of Cytochrome P450 2D6 (P10635 whole entry): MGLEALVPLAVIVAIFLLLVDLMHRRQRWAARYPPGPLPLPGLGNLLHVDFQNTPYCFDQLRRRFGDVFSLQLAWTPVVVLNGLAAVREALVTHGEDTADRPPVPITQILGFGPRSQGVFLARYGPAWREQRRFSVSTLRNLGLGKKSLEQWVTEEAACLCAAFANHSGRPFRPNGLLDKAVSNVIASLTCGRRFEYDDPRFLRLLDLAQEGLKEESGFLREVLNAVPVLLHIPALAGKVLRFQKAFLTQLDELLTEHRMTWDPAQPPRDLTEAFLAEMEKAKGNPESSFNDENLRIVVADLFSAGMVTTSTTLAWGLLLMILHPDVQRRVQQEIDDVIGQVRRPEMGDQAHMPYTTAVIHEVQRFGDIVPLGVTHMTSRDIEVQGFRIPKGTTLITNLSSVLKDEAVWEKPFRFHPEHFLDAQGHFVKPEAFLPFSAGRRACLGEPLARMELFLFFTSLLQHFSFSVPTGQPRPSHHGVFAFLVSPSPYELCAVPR

[16] = biological target: T1, Nuclear receptor subfamily 1 group I member 2; assay: Activation of PXR (unknown origin) assessed as induction of CYP1A1 expression up to 30 uM relative to untreated control; type: ADME

Chain of hERG (Q12809 whole entry): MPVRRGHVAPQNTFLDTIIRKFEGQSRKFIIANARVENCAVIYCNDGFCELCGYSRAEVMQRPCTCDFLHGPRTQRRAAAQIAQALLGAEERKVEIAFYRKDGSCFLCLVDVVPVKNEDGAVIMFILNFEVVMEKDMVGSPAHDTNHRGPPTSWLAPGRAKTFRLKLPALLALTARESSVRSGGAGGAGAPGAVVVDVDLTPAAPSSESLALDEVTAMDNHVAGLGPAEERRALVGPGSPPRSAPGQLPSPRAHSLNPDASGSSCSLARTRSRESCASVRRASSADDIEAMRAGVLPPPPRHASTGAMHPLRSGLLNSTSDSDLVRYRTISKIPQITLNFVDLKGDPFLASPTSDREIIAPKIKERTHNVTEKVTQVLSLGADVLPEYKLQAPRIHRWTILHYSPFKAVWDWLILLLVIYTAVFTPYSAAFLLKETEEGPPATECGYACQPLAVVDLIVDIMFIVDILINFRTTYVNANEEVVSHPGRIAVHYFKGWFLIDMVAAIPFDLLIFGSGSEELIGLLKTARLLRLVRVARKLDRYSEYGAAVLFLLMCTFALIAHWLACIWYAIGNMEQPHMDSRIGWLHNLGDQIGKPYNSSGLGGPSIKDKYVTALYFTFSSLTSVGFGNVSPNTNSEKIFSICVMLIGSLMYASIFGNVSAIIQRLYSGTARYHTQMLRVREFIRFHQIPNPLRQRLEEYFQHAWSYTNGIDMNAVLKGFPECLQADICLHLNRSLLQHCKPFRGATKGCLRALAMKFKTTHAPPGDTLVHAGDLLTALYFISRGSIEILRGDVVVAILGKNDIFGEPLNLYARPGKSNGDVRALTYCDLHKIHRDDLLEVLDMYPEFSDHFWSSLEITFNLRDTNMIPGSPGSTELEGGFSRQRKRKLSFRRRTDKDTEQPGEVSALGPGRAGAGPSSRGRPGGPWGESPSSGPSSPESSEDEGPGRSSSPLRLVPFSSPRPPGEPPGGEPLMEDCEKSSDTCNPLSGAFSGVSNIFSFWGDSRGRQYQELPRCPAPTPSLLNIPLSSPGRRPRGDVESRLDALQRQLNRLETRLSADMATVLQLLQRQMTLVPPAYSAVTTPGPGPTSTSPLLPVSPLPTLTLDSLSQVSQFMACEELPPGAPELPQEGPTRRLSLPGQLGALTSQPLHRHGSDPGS

Ratio [2] | IC50 [3] [nM] | SMILES | inhibition at 10 µM [1] [%] | inhibition in vivo at 10 mg/kg [10] [%] | also measured
83 | 240 | COc1cc(/C=C2\CCCN3C2=NOC[C@@H](O)[C@@H]3c2cc(F)cc(F)c2)ccc1-n1cnc(C)c1 | 55 | – | –
150 | 130 | COc1cc(/C=C2\CCCN3CC(c4ccc(F)cc4)CON=C23)ccc1-n1cnc(C)c1 (configuration not stated) | 90 | – | –
510 | 39 | COc1cc(/C=C2\CCCN3C2=NOCC[C@@H]3c2cc(F)c(F)c(F)c2)ccc1-n1cnc(C)c1 | 33 | 61 | inhibition [4]: Dose-dependent effect; IC50 [5]: > 30000 nM; Activity [6]: 0%; Activity [7]: 0%; inhibition in vivo at 3 mg/kg [8]: 43%; concentration at 6 h [9]: 1800 ng/g; AUC at 6 h [11]: 15.8 µM·h; Kp at 6 h [12]: 3.2; IC50 [13]: > 30000 nM; inhibition in vivo at 30 mg/kg [14]: 78%; IC50 [15]: > 30000 nM; Activity [16]: 2%
480 | 41 | COc1cc(/C=C2\CCCN3C2=NOC(C)CC3c2cc(F)c(F)c(F)c2)ccc1-n1cnc(C)c1 (mixture of isomers) | – | – | –
466 | 24 | COc1cc(/C=C2\CCCN3C2=NOCC[C@@H]3c2ccc(F)c(F)c2)ccc1-n1cnc(C)c1 | 56 | 48 | –
364 | 53 | COc1cc(/C=C2\CCCN3CCC(c4cc(F)c(F)c(F)c4)ON=C23)ccc1-n1cnc(C)c1 (configuration not stated) | 89 | – | –
35 | 580 | COc1cc(/C=C2\CCCCN3C2=NOC[C@@H]3c2ccc(F)cc2)ccc1-n1cnc(C)c1 | – | – | –
392 | 37 | COc1cc(/C=C2\CCCN3C2=NOCC[C@@H]3c2cc(F)cc(F)c2)ccc1-n1cnc(C)c1 | 49 | 39 | –
480 | 16 | COc1cc(/C=C2\CCCN3C2=NOCC[C@@H]3c2cc(F)cc(Cl)c2)ccc1-n1cnc(C)c1 | 53 | 59 | –
16 | 1260 | CCCO[C@@H]1CON=C2/C(=C/c3ccc(-n4cnc(C)c4)c(OC)c3)CCCN2[C@H]1c1cc(F)cc(F)c1 | 42 | – | –
262 | 64 | COc1cc(/C=C2\CCCN3CCC(c4cc(F)cc(Cl)c4)ON=C23)ccc1-n1cnc(C)c1 (configuration not stated) | 61 | – | –
340 | 40 | COc1cc(/C=C2\CCCN3C2=NOCC[C@@H]3c2ccc(F)c(Cl)c2)ccc1-n1cnc(C)c1 | 39 | 38 | –
140 | 140 | COc1cc(/C=C2\CCCN3CC(c4ccccc4)CON=C23)ccc1-n1cnc(C)c1 (configuration not stated) | – | – | –
409 | 49 | COc1cc(/C=C2\CCCN3C2=NOCC[C@@H]3c2ccc(F)cc2)ccc1-n1cnc(C)c1 | 81 | 40 | –
489 | 41 | COc1cc(/C=C2\CCCN3CCC(c4ccccc4)ON=C23)ccc1-n1cnc(C)c1 (configuration not stated) | 93 | – | –
354 | 52 | COc1cc(/C=C2\CCCN3C2=NOCC[C@@H]3c2ccc(F)cc2F)ccc1-n1cnc(C)c1 | – | 23 | –
572 | 35 | COc1cc(/C=C2\CCCN3C2=NOCC[C@@H]3c2cccc(F)c2)ccc1-n1cnc(C)c1 | 86 | – | –
607 | – | COc1cc(/C=C2\CCCN3C2=NOC[C@@H]3c2cc(F)c(F)c(F)c2)ccc1-n1cnc(C)c1 | – | – | –
210 | 95 | COc1cc(/C=C2\CCCN3C2=NOCC[C@@H]3c2ccc(Cl)c(F)c2)ccc1-n1cnc(C)c1 | – | 57 | –
465 | 43 | COc1cc(/C=C2\CCCN3CCC(c4ccc(F)cc4)ON=C23)ccc1-n1cnc(C)c1 (configuration not stated) | 93 | – | –
32 | 88 | COc1cc(/C=C2\CCCCN3C2=NOC[C@@H]3c2cc(F)c(F)c(F)c2)ccc1-n1cnc(C)c1 | – | – | –
371 | 41 | COc1cc(/C=C2\CCCN3CCC(c4cc(F)cc(F)c4)ON=C23)ccc1-n1cnc(C)c1 (configuration not stated) | – | – | –
